Assay results published in patent US20080033026A1, “Antimicrobial compositions, methods and systems” (priority 2006, published 2008).

Assays:
[1] = system: Salmonella enteritidis (ATCC 13076); experiment: Preservative effectiveness on food pathogens (US Pharmacopoeia 23); assay type: cell-based
Experimental: (§1) The effectiveness of 9-decenoic acid on food pathogens was determined using the protocol on preservative effectiveness found in the US Pharmacopoeia 23, 1995.
(§2) Stock cultures of the Listeria monocytogenes (ATCC 1911-1), Salmonella enteritidis (ATCC 13076) and Campylobacter jejuni (ATCC 29428) were transferred for at least three consecutives days on Trypticase Soy Agar (TSA) and incubated at 30-35° C. for 18-24 hours. On the day of the test, the cells were washed from the agar surface with sterile saline containing 0.05% w/v Polysorbate 80 (SS+) and the suspension was centrifuged at 2000 rpm for 15 minutes and resuspended in SS+. The suspension was diluted to approximately 10^8 CFU/ml.
(§3) The 9-decenoic acid was diluted in the same manner as previously described to achieve concentrations of 0.25%, 0.125%, 0.0625%, 0.03%, 0.015%, 0.0078% and 0.0039%. The samples were dispensed in 20 ml aliquots in sterile test tubes. For each concentration tested, a 0.1 ml aliquot of each inoculum was added to a final concentration of 10^5 to 10^6 CFU/ml. The tubes were incubated at room temperature and sampled on days 0, 1, 2, 4, 7, 14, 21 and 28.
(§4) At each sample point, 1.0 ml aliquots were withdrawn, serially diluted and plated in triplicate on TSA. The plates were incubated at 30-35° C. for 2-4 days. The colonies were counted and the average CFU/ml was calculated. Controls for purity, viability and sterility were performed as described previously.
(§5) According to the US Pharmacopoeia, a test compound is an effective preservative if the concentrations of viable bacteria remain at or below the initial concentrations during the first fourteen days and after 28 days.
(§6) Additionally, test organisms in Tables 9-11 were exposed to the 9-decenoic acid for several minutes before analysis at Day 0. As shown in the Tables 9-11, significant biocidal activity was observed even within this short time period for the test organisms, illustrating the effectiveness of 9-decenoic acid as a biocidal agent.

[2] = system: Listeria monocytogenes (ATCC 19111); experiment: as above; assay type: cell-based
Experimental: as §1, §2, §3, §4, §5, §6

[3] = 0.0078% 9-decenoic acid, exposure day 0
[4] = 0.0078% 9-decenoic acid, exposure day 1
[5] = 0.0078% 9-decenoic acid, exposure day 2
[6] = 0.0078% 9-decenoic acid, exposure day 4
[7] = 0.0078% 9-decenoic acid, exposure day 7
[8] = 0.0078% 9-decenoic acid, exposure day 14
[9] = 0.0078% 9-decenoic acid, exposure day 21
[10] = 0.0078% 9-decenoic acid, exposure day 28
[11] = 0.015% 9-decenoic acid, exposure day 0
[12] = 0.015% 9-decenoic acid, exposure day 1
[13] = 0.015% 9-decenoic acid, exposure day 2
[14] = 0.015% 9-decenoic acid, exposure day 4
[15] = 0.015% 9-decenoic acid, exposure day 7
[16] = 0.015% 9-decenoic acid, exposure day 14
[17] = 0.015% 9-decenoic acid, exposure day 21
[18] = 0.015% 9-decenoic acid, exposure day 28
[19] = 0.03% 9-decenoic acid, exposure day 0
[20] = 0.03% 9-decenoic acid, exposure day 1
[21] = 0.03% 9-decenoic acid, exposure day 2
[22] = 0.03% 9-decenoic acid, exposure day 4
[23] = 0.03% 9-decenoic acid, exposure day 7
[24] = 0.03% 9-decenoic acid, exposure day 14
[25] = 0.03% 9-decenoic acid, exposure day 21
[26] = 0.03% 9-decenoic acid, exposure day 28
[27] = US Pharmacopoeia definition, 28 days

Work on `C=CCCCCCCCC(=O)O` [9-decenoic acid] yielded a Log reduction [1, 3] of 0.53 log, a Log reduction [1, 4] of 3.2 log and a Log reduction [1, 5] of 4.1 log. The Log reduction [1, 6] was 4.0 log, the Log reduction [1, 7] was 5.1 log and the Log reduction [1, 8] was 5.1 log. For the same compound, the Log reduction [1, 9] was 5.1 log, the Log reduction [1, 10] was 5.1 log and the Log reduction [1, 11] was 5.1 log. It also gave a Log reduction [1, 12] of 5.1 log, a Log reduction [1, 13] of 5.1 log and a Log reduction [1, 14] of 5.1 log. The Log reduction [1, 15] was 5.1 log, the Log reduction [1, 16] was 5.1 log and the Log reduction [1, 17] was 5.1 log. It also gave a Log reduction [1, 18] of 5.1 log, a Log reduction [1, 19] of 5.1 log and a Log reduction [1, 20] of 5.1 log. The Log reduction [1, 21] was 5.1 log, the Log reduction [1, 22] was 5.1 log and the Log reduction [1, 23] was 5.1 log. The Log reduction [1, 24] was 5.1 log, the Log reduction [1, 25] was 5.1 log and the Log reduction [1, 26] was 5.1 log. The “Concentration at which effective preservative” value [1, 27] was at most 0.0078%, the “Exposure time at which bactericidal” value ([1]; at 0.0078%) was 7 days and the “Exposure time at which bactericidal” value ([1]; at 0.015%) was 0 days. The Log reduction [2, 3] was 1.0 log, the Log reduction [2, 4] was 5.1 log and the Log reduction [2, 5] was 5.1 log. It also gave a Log reduction [2, 6] of 5.1 log, a Log reduction [2, 7] of 5.1 log and a Log reduction [2, 8] of 5.1 log. The Log reduction [2, 9] was 5.1 log, the Log reduction [2, 10] was 5.1 log and the Log reduction [2, 11] was 5.1 log. The Log reduction [2, 12] was 5.1 log, the Log reduction [2, 13] was 5.1 log and the Log reduction [2, 14] was 5.1 log. For the same compound, the Log reduction [2, 15] was 5.1 log, the Log reduction [2, 16] was 5.1 log and the Log reduction [2, 17] was 5.1 log. For the same compound, the Log reduction [2, 18] was 5.1 log, the Log reduction [2, 19] was 5.1 log and the Log reduction [2, 20] was 5.1 log. The Log reduction [2, 21] was 5.1 log, the Log reduction [2, 22] was 5.1 log and the Log reduction [2, 23] was 5.1 log. For the same compound, the Log reduction [2, 24] was 5.1 log, the Log reduction [2, 25] was 5.1 log and the Log reduction [2, 26] was 5.1 log. The “Concentration at which effective preservative” value [2, 27] was at most 0.0078%, the “Exposure time at which bactericidal” value ([2]; at 0.0078%) was 1 days and the “Exposure time at which bactericidal” value ([2]; at 150 ppm) was 0 days.
